# Source: PMC7930289 (Heliyon, 2021)
# Tests used:
# Na+/K+-ATPase = details: read-out: Ki (Na+/K+-ATPase activity); cited from earlier work
# [1] = molecular target: hPMCA4 overexpressed in HEK293T cells (Homo sapiens, UniProt P23634); assay: Dynamics of cytoplasmic Ca2+ in HEK293T cells overexpressing hPMCA4; type: cell-based; details: 50 μM, 30 min; for AUC of [Ca2+]CYT after TG addition: 2 μM TG
# Chain of hPMCA4 overexpressed in HEK293T cells (P23634 1-1205 isoform P23634-6): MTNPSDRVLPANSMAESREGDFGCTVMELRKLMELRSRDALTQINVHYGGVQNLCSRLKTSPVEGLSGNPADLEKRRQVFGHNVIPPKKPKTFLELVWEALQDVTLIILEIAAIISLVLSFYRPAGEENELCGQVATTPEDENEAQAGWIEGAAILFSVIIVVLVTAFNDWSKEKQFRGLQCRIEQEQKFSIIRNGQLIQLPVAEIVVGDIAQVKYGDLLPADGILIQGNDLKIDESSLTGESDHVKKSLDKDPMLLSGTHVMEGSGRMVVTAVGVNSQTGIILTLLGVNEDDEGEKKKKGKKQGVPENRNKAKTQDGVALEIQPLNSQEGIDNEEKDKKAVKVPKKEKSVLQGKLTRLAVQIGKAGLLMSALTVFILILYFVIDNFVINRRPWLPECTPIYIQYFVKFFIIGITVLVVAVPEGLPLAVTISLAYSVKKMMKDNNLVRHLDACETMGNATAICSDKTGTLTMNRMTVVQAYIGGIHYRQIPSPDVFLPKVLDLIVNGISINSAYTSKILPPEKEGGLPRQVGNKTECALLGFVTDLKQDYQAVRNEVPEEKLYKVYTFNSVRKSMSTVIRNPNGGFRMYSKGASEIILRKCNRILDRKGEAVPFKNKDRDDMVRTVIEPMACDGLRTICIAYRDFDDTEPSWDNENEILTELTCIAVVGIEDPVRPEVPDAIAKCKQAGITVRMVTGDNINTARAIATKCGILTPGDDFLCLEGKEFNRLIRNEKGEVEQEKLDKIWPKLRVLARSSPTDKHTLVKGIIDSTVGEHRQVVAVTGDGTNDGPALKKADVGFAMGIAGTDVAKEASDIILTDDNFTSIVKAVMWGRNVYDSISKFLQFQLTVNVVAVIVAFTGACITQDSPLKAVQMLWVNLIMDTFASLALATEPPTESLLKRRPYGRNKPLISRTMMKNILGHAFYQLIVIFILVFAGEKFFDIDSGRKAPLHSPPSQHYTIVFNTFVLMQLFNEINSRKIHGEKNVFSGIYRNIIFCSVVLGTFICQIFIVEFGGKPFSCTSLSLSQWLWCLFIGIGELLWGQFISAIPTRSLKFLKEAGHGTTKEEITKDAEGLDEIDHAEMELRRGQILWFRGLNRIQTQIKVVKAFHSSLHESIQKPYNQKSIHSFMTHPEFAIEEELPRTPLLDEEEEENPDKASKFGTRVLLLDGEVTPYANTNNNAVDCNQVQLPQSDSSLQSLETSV
smiles,measurement,setting,value
"O=C(O[C@@H]1Cc2c(O)cc(O)cc2O[C@@H]1c1cc(O)c(O)c(O)c1)c1cc(O)c(O)c(O)c1 [EGCG, (−)-cis-3,3′,4′,5,5′,7-Hexahydroxy-flavane-3-gallate]",Ki,Na+/K+-ATPase,1 µM
same,hPMCA4 activity in HEK293T cells (Eq. 6),[1],significantly decreased
same,AUC of [Ca2+]CYT after TG addition,[1]; HEK293T-hPMCA4 cells,induced an increase in the AUC value
same,AUC of [Ca2+]CYT after TG addition,[1]; HEK293T-mock cells,no significant effect
